Assay results: the supplement of paper PMC11061612

Experiments:
Experiment in all cases: combination Emax (second highest fraction inhibited in the dose matrix, 72 h); higher = more inhibition; extreme values may be limits of the assay
[1] = tested on: MDST8 (Colorectal Carcinoma)
Summary of the method: (§1)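 Cell lines grown in DMEM/F12 or RPMI with 10% FBS were plated in 1536-well plates and held 24 hours at 37°C, 5% CO2 before 72 hours of exposure to two-drug dose matrices, with DMSO typically at 0.2%. CellTiter-Glo 2.0 luminescence gave viability, which was converted to inhibition. Vehicle wells were set to 0 and blank wells to 1. Combination Emax is the second-highest inhibition in the matrix, and Bliss excess is the observed combination effect minus the expected EA + EB − EA·EB, where EA and EB are the single-agent effects.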

[2] = tested on: CAL-29 (Bladder Carcinoma)
Summary of the method: as §1

PA-1 (Ovarian Carcinoma) = tested on: PA-1 (Ovarian Carcinoma)
Summary of the method: as §1

[3] = tested on: CAPAN-2 (Pancreatic Carcinoma)
Summary of the method: as §1

[4] = tested on: TT (Thyroid Gland Carcinoma)
Summary of the method: as §1

[5] = tested on: NCI-H64 (Small Cell Lung Carcinoma)
Summary of the method: as §1

SMILES | combination Emax [1] | combination Emax [2] | combination Emax (PA-1 (Ovarian Carcinoma)) | combination Emax [3] | combination Emax [4] | combination Emax [5]
CN(C)CCCOc1ccc(-c2ccc3ncc4c(c3c2)n(C2CCOCC2)c(=O)n4C)cn1 [AZD0156] + C=CCn1c(=O)c2cnc(Nc3ccc(N4CCN(C)CC4)cc3)nc2n1-c1cccc(C(C)(C)O)n1 [AZD1775] (first compound max 1 µM, partner max 1 µM) | 0.416 | 0.642 | 0.789 | 0.39 | 0.271 | 0.832
CN(C)CCCOc1ccc(-c2ccc3ncc4c(c3c2)n(C2CCOCC2)c(=O)n4C)cn1 [AZD0156] + CCN(CCO)CCCOc1ccc2c(Nc3cc(CC(=O)Nc4cccc(F)c4)[nH]n3)ncnc2c1 [AZD2811] (first compound max 1 µM, 7x7, partner max 1 µM) | 0.281 | 0.284 | 0.407 | 0.122 | 0.359 | 0.461
CN(C)CCCOc1ccc(-c2ccc3ncc4c(c3c2)n(C2CCOCC2)c(=O)n4C)cn1 [AZD0156] + C[C@@H]1COCCN1C2=NC(=NC(=C2)C3(CC3)[S@](=N)(=O)C)C4=C5C=CNC5=NC=C4 [AZD6738] (first compound max 1 µM, 7x7, partner max 10 µM) | 0.919 | 0.772 | 0.85 | 0.395 | 0.429 | 0.732
C=CCn1c(=O)c2cnc(Nc3ccc(N4CCN(C)CC4)cc3)nc2n1-c1cccc(C(C)(C)O)n1 [AZD1775] + C[C@@H]1COCCN1C2=NC(=NC(=C2)C3(CC3)[S@](=N)(=O)C)C4=C5C=CNC5=NC=C4 [AZD6738] (first compound max 1 µM, partner max 10 µM) | 0.816 | 0.794 | 0.883 | 0.486 | 0.441 | 0.936
C=CCn1c(=O)c2cnc(Nc3ccc(N4CCN(C)CC4)cc3)nc2n1-c1cccc(C(C)(C)O)n1 [AZD1775] + O=C(c1cc(Cc2n[nH]c(=O)c3ccccc23)ccc1F)N1CCN(C(=O)C2CC2)CC1 [Olaparib] (first compound max 1 µM, partner max 10 µM) | 0.408 | 0.612 | 0.756 | 0.394 | 0.273 | 0.869
CCN(CCO)CCCOc1ccc2c(Nc3cc(CC(=O)Nc4cccc(F)c4)[nH]n3)ncnc2c1 [AZD2811] + C=CCn1c(=O)c2cnc(Nc3ccc(N4CCN(C)CC4)cc3)nc2n1-c1cccc(C(C)(C)O)n1 [AZD1775] (first compound max 1 µM, partner max 1 µM) | 0.465 | 0.633 | 0.767 | 0.299 | 0.365 | 0.813
CCN(CCO)CCCOc1ccc2c(Nc3cc(CC(=O)Nc4cccc(F)c4)[nH]n3)ncnc2c1 [AZD2811] + C[C@@H]1COCCN1C2=NC(=NC(=C2)C3(CC3)[S@](=N)(=O)C)C4=C5C=CNC5=NC=C4 [AZD6738] (first compound max 1 µM, 7x7, partner max 10 µM) | 0.724 | 0.67 | 0.795 | 0.29 | 0.475 | 0.781
CCN(CCO)CCCOc1ccc2c(Nc3cc(CC(=O)Nc4cccc(F)c4)[nH]n3)ncnc2c1 [AZD2811] + O=C(c1cc(Cc2n[nH]c(=O)c3ccccc23)ccc1F)N1CCN(C(=O)C2CC2)CC1 [Olaparib] (first compound max 1 µM, 7x7, partner max 10 µM) | 0.338 | 0.288 | 0.545 | 0.184 | 0.458 | 0.434
CN(CCO)CC[C@H](CSc1ccccc1)Nc1ccc(S(=O)(=O)NC(=O)c2ccc(N3CCC([C@@H](O)c4ccccc4-c4ccc(Cl)cc4)CC3)cc2)cc1S(=O)(=O)C(F)(F)F [AZD4320] + C1CN(CCC1(C(=O)N[C@@H](CCO)C2=CC=C(C=C2)Cl)N)C3=NC=NC4=C3C=CN4 [Capivasertib] (first compound max 1 µM, 7x7, partner max 3 µM) | 0.914 | 0.221 | 0.743 | 0.576 | 0.408 | 0.95
CN(CCO)CC[C@H](CSc1ccccc1)Nc1ccc(S(=O)(=O)NC(=O)c2ccc(N3CCC([C@@H](O)c4ccccc4-c4ccc(Cl)cc4)CC3)cc2)cc1S(=O)(=O)C(F)(F)F [AZD4320] + C=CCn1c(=O)c2cnc(Nc3ccc(N4CCN(C)CC4)cc3)nc2n1-c1cccc(C(C)(C)O)n1 [AZD1775] (first compound max 1 µM, partner max 1 µM) | 0.992 | 0.942 | 0.967 | 0.688 | 0.484 | 1
CN(CCO)CC[C@H](CSc1ccccc1)Nc1ccc(S(=O)(=O)NC(=O)c2ccc(N3CCC([C@@H](O)c4ccccc4-c4ccc(Cl)cc4)CC3)cc2)cc1S(=O)(=O)C(F)(F)F [AZD4320] + CCN(CCO)CCCOc1ccc2c(Nc3cc(CC(=O)Nc4cccc(F)c4)[nH]n3)ncnc2c1 [AZD2811] (first compound max 1 µM, 7x7, partner max 1 µM) | 0.918 | 0.545 | 0.773 | 0.776 | 0.615 | 1
CN(CCO)CC[C@H](CSc1ccccc1)Nc1ccc(S(=O)(=O)NC(=O)c2ccc(N3CCC([C@@H](O)c4ccccc4-c4ccc(Cl)cc4)CC3)cc2)cc1S(=O)(=O)C(F)(F)F [AZD4320] + CN(C)CCCOc1ccc(-c2ccc3ncc4c(c3c2)n(C2CCOCC2)c(=O)n4C)cn1 [AZD0156] (first compound max 1 µM, 7x7, partner max 1 µM) | 0.772 | 0.104 | 0.497 | 0.634 | 0.269 | 0.973
CN(CCO)CC[C@H](CSc1ccccc1)Nc1ccc(S(=O)(=O)NC(=O)c2ccc(N3CCC([C@@H](O)c4ccccc4-c4ccc(Cl)cc4)CC3)cc2)cc1S(=O)(=O)C(F)(F)F [AZD4320] + C[C@@H]1COCCN1C2=NC(=NC(=C2)C3(CC3)[S@](=N)(=O)C)C4=C5C=CNC5=NC=C4 [AZD6738] (first compound max 1 µM, 7x7, partner max 10 µM) | 0.944 | 0.928 | 0.886 | 0.791 | 0.726 | 0.99
CN(CCO)CC[C@H](CSc1ccccc1)Nc1ccc(S(=O)(=O)NC(=O)c2ccc(N3CCC([C@@H](O)c4ccccc4-c4ccc(Cl)cc4)CC3)cc2)cc1S(=O)(=O)C(F)(F)F [AZD4320] + C[C@@H](Nc1cc(F)cc(F)c1)c1cc(C(=O)N(C)C)cc2c(=O)cc(N3CCOCC3)oc12 [AZD8186] (first compound max 1 µM, 7x7, partner max 3 µM) | – | 0.515 | 0.927 | 0.678 | 0.803 | 0.967
CN(CCO)CC[C@H](CSc1ccccc1)Nc1ccc(S(=O)(=O)NC(=O)c2ccc(N3CCC([C@@H](O)c4ccccc4-c4ccc(Cl)cc4)CC3)cc2)cc1S(=O)(=O)C(F)(F)F [AZD4320] + Cc1cc2ncnn2cc1Nc1ncc2c(n1)n(C1CCOCC1)c(=O)n2C [AZD7648] (first compound max 1 µM, 7x7, partner max 10 µM) | 0.821 | 0.21 | 0.61 | 0.653 | 0.209 | 0.964
CN(CCO)CC[C@H](CSc1ccccc1)Nc1ccc(S(=O)(=O)NC(=O)c2ccc(N3CCC([C@@H](O)c4ccccc4-c4ccc(Cl)cc4)CC3)cc2)cc1S(=O)(=O)C(F)(F)F [AZD4320] + Cn1cnc2c(F)c(Nc3ccc(Br)cc3Cl)c(C(=O)NOCCO)cc21 [Selumetinib] (first compound max 1 µM, 7x7, partner max 3 µM) | 0.955 | 0.634 | 0.8 | 0.772 | 0.781 | 0.988
COc1nnc2ccc(N3CCC(c4ccc(OCCN5CCN(C)C(=O)[C@H]5C)cc4)CC3)nn12 [AZD5153] + C=CCn1c(=O)c2cnc(Nc3ccc(N4CCN(C)CC4)cc3)nc2n1-c1cccc(C(C)(C)O)n1 [AZD1775] (first compound max 1 µM, partner max 1 µM) | 0.461 | 0.524 | 0.973 | 0.328 | 0.563 | 0.884
COc1nnc2ccc(N3CCC(c4ccc(OCCN5CCN(C)C(=O)[C@H]5C)cc4)CC3)nn12 [AZD5153] + CC1(C)CCC(CN2CCN(c3ccc(C(=O)NS(=O)(=O)c4ccc(NCC5CCOCC5)c([N+](=O)[O-])c4)c(Oc4cnc5[nH]ccc5c4)c3)CC2)=C(c2ccc(Cl)cc2)C1 [Venetoclax] (first compound max 1 µM, 7x7, partner max 1 µM) | 0.324 | 0.327 | 0.862 | 0.299 | 0.596 | 0.226
COc1nnc2ccc(N3CCC(c4ccc(OCCN5CCN(C)C(=O)[C@H]5C)cc4)CC3)nn12 [AZD5153] + CN(CC[C@H](CSC1=CC=CC=C1)NC2=C(C=C(C=C2)S(=O)(=O)NC(=O)C3=CC=C(C=C3)N4CCC(CC4)[C@H](C5=CC=CC=C5C6=CC=C(C=C6)Cl)O)S(=O)(=O)C(F)(F)F)CCO [AZD4320] (first compound max 1 µM, 7x7, partner max 1 µM) | 0.918 | 0.401 | 0.9 | – | – | –
CC(=O)c1c(C)c2cnc(Nc3ccc(N4CCNCC4)cn3)nc2n(C2CCCC2)c1=O [Palbociclib] + CN(CC[C@H](CSC1=CC=CC=C1)NC2=C(C=C(C=C2)S(=O)(=O)NC(=O)C3=CC=C(C=C3)N4CCC(CC4)[C@H](C5=CC=CC=C5C6=CC=C(C=C6)Cl)O)S(=O)(=O)C(F)(F)F)CCO [AZD4320] (first compound max 10 µM, 7x7, partner max 1 µM) | 0.781 | 0.172 | 0.872 | – | – | –
CCc1c2c(nc3ccc(O)cc13)-c1cc3c(c(=O)n1C2)COC(=O)[C@]3(O)CC [SN-38] + O=C(c1cc(Cc2n[nH]c(=O)c3ccccc23)ccc1F)N1CCN(C(=O)C2CC2)CC1 [Olaparib] (first compound max 0.3 µM, 7x7, partner max 10 µM) | 0.745 | – | 0.848 | 0.137 | 0.892 | 0.396
C[C@@H](c1ccc2nccn2c1)n1nnc2ncc(-c3cnn(C)c3)nc21 [Savolitinib] + CN(CC[C@H](CSC1=CC=CC=C1)NC2=C(C=C(C=C2)S(=O)(=O)NC(=O)C3=CC=C(C=C3)N4CCC(CC4)[C@H](C5=CC=CC=C5C6=CC=C(C=C6)Cl)O)S(=O)(=O)C(F)(F)F)CCO [AZD4320] (first compound max 1 µM, 7x7, partner max 1 µM) | 0.626 | 0.174 | 0.465 | – | – | –
